Experimental data as given in patent US8242275B2, “Bicyclic pyrazole compounds as antibacterial agents” (Janssen Pharmaceutica NV, priority 2005, dated 2012).
≈ marks a conversion by molar mass, not a printed value.

Experiments:
Test in all cases: In vitro antibacterial activity (MIC assay), broth microdilution
Assay type in all cases: cell-based
[1] = test system: E. coli KL-16 (GSC strain 4245); settings: Escherichia coli
Procedure: (§1) Minimal inhibitory concentration (MIC) has been an indicator of in vitro antibacterial activity widely used in the art. The in vitro antibacterial activity of the compounds was determined by the broth microdilution method described by the National Committee for Clinical Laboratory Standards (NCCLS) in the NCCLS Document M7-A5, Vol. 20, No. 2, “Methods for Dilution Antimicrobial Susceptibility Test for Bacteria that Grow Aerobically—Fifth Edition”, which is incorporated herein by reference.
(§2) In this method, an aliquot of test compound from an 11-point series of 2-fold serial dilutions of compounds in 100% DMSO was added to wells in microdilution plates. The test organisms were prepared by adjusting the turbidity of actively growing broth cultures so that the final concentration of test organism after addition to wells with or without compounds was approximately 5×10^5 CFU/mL.
(§3) Following inoculation of the microdilution plates, the plates were incubated at 35° C. for 16-24 h and then scored for bacterial growth. […] The amount of growth in the wells containing the test compound was compared with the amount of growth in the growth-control wells (no test compound used) in each plate, and with the amount of growth in the wells containing control compounds (such as ciprofloxacin). Compounds of the present invention were tested against several bacterial strains. The MIC values (in μg/mL) are presented in Table 1 for Gram-negative (E. coli KL-16 (GSC strain 4245); data marked as (*) was obtained with E. coli ATCC25922) and Gram-positive bacteria (S. aureus ATCC13709; S. pneumoniae ATCC49619).

[2] = test system: S. pneumoniae ATCC49619; settings: Streptococcus pneumoniae, ATCC49619; read-out: S. pneumoniae ATCC49619 MIC
Procedure: as §1, §2, §3

[3] = test system: S. aureus ATCC13709; settings: Staphylococcus aureus, ATCC13709; read-out: S. aureus ATCC13709 MIC
Procedure: as §1, §2, §3

MIC [1] [µg/mL] | MIC [2] [µg/mL] | MIC [3] [µg/mL] | SMILES
> 128 | 8 (≈ 17.5 µM) | 2 (≈ 4.38 µM) | COc1ccc2nccc(-n3cc4c(n3)CCC(NC(=O)c3ccc5c(c3)OCCO5)C4)c2c1 (stereo not drawn) [Example 16, 2,3-Dihydro-benzo[1,4]dioxine-6-carboxylic acid [2-(6-methoxy-quinolin-4-yl)-4,5,6,7-tetrahydro-2H-indazol-5-yl]-amide]
> 128 | 8 (≈ 16.8 µM) | 0.5 (≈ 1.05 µM) | COc1ccc2nccc(-n3cc4c(n3)CCC(NC(=O)c3cc(F)c5c(c3)OCCO5)C4)c2n1 (stereo not drawn) [Example 127, 8-Fluoro-2,3-dihydro-benzo[1,4]dioxine-6-carboxylic acid [2-(6-methoxy-[1,5]naphthyridin-4-yl)-4,5,6,7-tetrahydro-2H-indazol-5-yl]-amide]
128 (≈ 299 µM) | 8 (≈ 18.7 µM) | 1 (≈ 2.33 µM) | COc1ccc2nccc(-n3cc4c(n3)CCC(NCC(=O)Nc3ccccc3)C4)c2n1 (stereo not drawn) [Example 59, 2-[2-(6-Methoxy-[1,5]naphthyridin-4-yl)-4,5,6,7-tetrahydro-2H-indazol-5-ylamino]-N-phenyl-acetamide]
> 128 | > 128 | 2 (≈ 3.61 µM) | COc1ccc2nccc(-n3ncc4c3CCC(NC(=O)c3cc5c(cc3C(F)(F)F)SCC(=O)N5)C4)c2c1 (stereo not drawn) [Example 99, 3-Oxo-7-trifluoromethyl-3,4-dihydro-2H-benzo[1,4]thiazine-6-carboxylic acid [1-(6-methoxy-quinolin-4-yl)-4,5,6,7-tetrahydro-1H-indazol-5-yl]-amide]
> 128 | 8 (≈ 16.9 µM) | 2 (≈ 4.22 µM) | COc1ccc2nccc(-n3cc4c(n3)CCC(NC(=O)c3cc(F)c5c(c3)OCCO5)C4)c2c1 (stereo not drawn) [Example 128, 8-Fluoro-2,3-dihydro-benzo[1,4]dioxine-6-carboxylic acid [2-(6-methoxy-quinolin-4-yl)-4,5,6,7-tetrahydro-2H-indazol-5-yl]-amide]
> 128 | 1 (≈ 2.33 µM) | 0.5 (≈ 1.17 µM) | COc1ccc2nccc(-n3cc4c(n3)CCC(NCc3ccc(N(C)C)cc3)C4)c2n1 (stereo not drawn) [Example 39, (4-Dimethylamino-benzyl)-[2-(6-methoxy-[1,5]naphthyridin-4-yl)-4,5,6,7-tetrahydro-2H-indazol-5-yl]-amine]
> 128 | 8 (≈ 17.4 µM) | 0.25 (≈ 0.545 µM) | COc1ccc2nccc(-n3cc4c(n3)CCC(NC(=O)c3ccc(C)c([N+](=O)[O-])c3)C4)c2n1 (stereo not drawn) [Example 110, N-[2-(6-Methoxy-[1,5]naphthyridin-4-yl)-4,5,6,7-tetrahydro-2H-indazol-5-yl]-4-methyl-3-nitro-benzamide]
> 128 | 32 (≈ 64.5 µM) | 2 (≈ 4.03 µM) | COc1ccc2nccc(-n3cc4c(n3)CCC(NCC(=O)Nc3cccc(C(F)(F)F)c3)C4)c2n1 (stereo not drawn) [Example 122, 2-[2-(6-Methoxy-[1,5]naphthyridin-4-yl)-4,5,6,7-tetrahydro-2H-indazol-5-ylamino]-N-(3-trifluoromethyl-phenyl)-acetamide]
> 128 | 1 (≈ 2.17 µM) | 1 (≈ 2.17 µM) | COc1ccc2nccc(-n3cc4c(n3)CCC(NCc3cc5c(cc3F)OCCO5)C4)c2c1 (stereo not drawn) [Example 51, (7-Fluoro-2,3-dihydro-benzo[1,4]dioxin-6-ylmethyl)-[2-(6-methoxy-quinolin-4-yl)-4,5,6,7-tetrahydro-2H-indazol-5-yl]-amine]
> 128 | > 128 | 8 (≈ 16.4 µM) | Cc1cc(-n2cc3c(n2)CCC(NC(=O)c2ccc4c(c2)NC(=O)CS4)C3)c2cc(F)ccc2n1 (stereo not drawn) [Example 82, 3-Oxo-3,4-dihydro-2H-benzo[1,4]thiazine-6-carboxylic acid [2-(6-fluoro-2-methyl-quinolin-4-yl)-4,5,6,7-tetrahydro-2H-indazol-5-yl]-amide]
> 128 | 4 (≈ 8.48 µM) | 1 (≈ 2.12 µM) | COc1ccc2nccc(-n3cc4c(n3)CCC(NC(=O)c3ccc5c(c3)OCCCO5)C4)c2n1 (stereo not drawn) [Example 3, 3,4-Dihydro-2H-benzo[b][1,4]dioxepine-7-carboxylic acid [2-(6-methoxy-[1,5]naphthyridin-4-yl)-4,5,6,7-tetrahydro-2H-indazol-5-yl]-amide]
> 128 | 2 (≈ 4.7 µM) | 0.25 (≈ 0.588 µM) | COc1ccc2nccc(-n3cc4c(n3)CCC(NC(=O)/C=C/c3ccccc3)C4)c2n1 (stereo not drawn) [Example 10, N-[2-(6-Methoxy-[1,5]naphthyridin-4-yl)-4,5,6,7-tetrahydro-2H-indazol-5-yl]-3-phenyl-acrylamide]
> 128 | 4 (≈ 9.42 µM) | 1 (≈ 2.36 µM) | COc1ccc2nccc(-n3cc4c(n3)CCC(NC(=O)/C=C/c3ccccc3)C4)c2c1 (stereo not drawn) [Example 29, N-[2-(6-Methoxy-quinolin-4-yl)-4,5,6,7-tetrahydro-2H-indazol-5-yl]-3-phenyl-acrylamide]
> 128 | > 128 | 4 (≈ 7.47 µM) | COc1ccc2nccc(-n3cc4c(n3)CCC(NC(=O)c3cc(NC(C)=O)ccc3Br)C4)c2n1 (stereo not drawn) [Example 124, 5-Acetylamino-2-bromo-N-[2-(6-methoxy-[1,5]naphthyridin-4-yl)-4,5,6,7-tetrahydro-2H-indazol-5-yl]-benzamide]
6 (≈ 12.4 µM) | 0.8 (≈ 1.65 µM) | 0.1 (≈ 0.207 µM) | COc1ccc2nccc(-n3cc4c(n3)CCC(NCC(=O)c3ccc5c(c3)NC(=O)CO5)C4)c2c1 (stereo not drawn) [Example 63, 6-{2-[2-(6-Methoxy-quinolin-4-yl)-4,5,6,7-tetrahydro-2H-indazol-5-ylamino]-acetyl}-4H-benzo[1,4]oxazin-3-one]
> 128 | 2 (≈ 4.25 µM) | 1 (≈ 2.13 µM) | COc1ccc2nccc(-n3cc4c(n3)CCC(NCc3ccc(N(C)C)c(C#N)c3F)C4)c2c1 (stereo not drawn) [Example 126, 6-Dimethylamino-2-fluoro-3-{[2-(6-methoxy-quinolin-4-yl)-4,5,6,7-tetrahydro-2H-indazol-5-ylamino]-methyl}-benzonitrile]
> 128 | 8 (≈ 16.8 µM) | 0.5 (≈ 1.05 µM) | COc1ccc2nccc(-n3cc4c(n3)CCC(NC(=O)c3cc5c(cc3F)OCCO5)C4)c2n1 (stereo not drawn) [Example 2, 7-Fluoro-2,3-dihydro-benzo[1,4]dioxine-6-carboxylic acid [2-(6-methoxy-[1,5]naphthyridin-4-yl)-4,5,6,7-tetrahydro-2H-indazol-5-yl]-amide]
> 128 | > 128 | 2 (≈ 3.96 µM) | COc1ccc2nccc(-n3cc4c(n3)CCC(NC(=O)/C=C/c3cc([N+](=O)[O-])ccc3Cl)C4)c2n1 (stereo not drawn) [Example 94, 3-(2-Chloro-5-nitro-phenyl)-N-[2-(6-methoxy-[1,5]naphthyridin-4-yl)-4,5,6,7-tetrahydro-2H-indazol-5-yl]-acrylamide]
> 128 | 8 (≈ 17.3 µM) | 4 (≈ 8.63 µM) | COc1ccc2nccc(-n3cc4c(n3)CCC(NCc3cc(OC)c(OC)cc3F)C4)c2n1 (stereo not drawn) [Example 88, (2-Fluoro-4,5-dimethoxy-benzyl)-[2-(6-methoxy-[1,5]naphthyridin-4-yl)-4,5,6,7-tetrahydro-2H-indazol-5-yl]-amine]
4 (≈ 8.24 µM) | 4 (≈ 8.24 µM) | 0.125 (≈ 0.257 µM) | COc1ccc2nccc(-n3cc4c(n3)CC(NC(=O)c3ccc5c(c3)NC(=O)CS5)CC4)c2c1 (stereo not drawn) [Example 27, 3-Oxo-3,4-dihydro-2H-benzo[1,4]thiazine-6-carboxylic acid [2-(6-methoxy-quinolin-4-yl)-4,5,6,7-tetrahydro-2H-indazol-6-yl]-amide]
> 128 | 16 (≈ 32.2 µM) | 1 (≈ 2.01 µM) | COc1ccc2nccc(-n3cc4c(n3)CCC(NCC(=O)Nc3ccc(Cl)c(Cl)c3)C4)c2c1 (stereo not drawn) [Example 62, N-(3,4-Dichloro-phenyl)-2-[2-(6-methoxy-quinolin-4-yl)-4,5,6,7-tetrahydro-2H-indazol-5-ylamino]-acetamide]
> 128 | > 128 | 2 (≈ 3.87 µM) | COc1ccc2nccc(-n3cc4c(n3)CCC(NC(=O)c3cc5cc(Br)ccc5[nH]3)C4)c2c1 (stereo not drawn) [Example 76, 5-Bromo-1H-indole-2-carboxylic acid [2-(6-methoxy-quinolin-4-yl)-4,5,6,7-tetrahydro-2H-indazol-5-yl]-amide]
> 128 | 8 (≈ 18.2 µM) | 2 (≈ 4.56 µM) | COc1ccc2nccc(-n3cc4c(n3)CCC(NC(=O)c3nc5ccccc5[nH]3)C4)c2c1 (stereo not drawn) [Example 71, 1H-Benzoimidazole-2-carboxylic acid [2-(6-methoxy-quinolin-4-yl)-4,5,6,7-tetrahydro-2H-indazol-5-yl]-amide]
> 128 | 4 (≈ 8.46 µM) | < 0.125 | COc1ccc2nccc(-n3cc4c(n3)CCC(NC(=O)c3cc5c(F)cccc5s3)C4)c2c1 (stereo not drawn) [Example 24, 4-Fluoro-benzo[b]thiophene-2-carboxylic acid [2-(6-methoxy-quinolin-4-yl)-4,5,6,7-tetrahydro-2H-indazol-5-yl]-amide]
> 128 | 8 (≈ 16.9 µM) | 4 (≈ 8.43 µM) | COc1ccc2nccc(-n3cc4c(n3)CCC(NC(=O)c3ccc(OC)c([N+](=O)[O-])c3)C4)c2n1 (stereo not drawn) [Example 119, 4-Methoxy-N-[2-(6-methoxy-[1,5]naphthyridin-4-yl)-4,5,6,7-tetrahydro-2H-indazol-5-yl]-3-nitro-benzamide]
